Test results reported in patent US20120231015A1, “FRAGILE X MENTAL RETARDATION PROTEIN (FMRP), COMPOSITIONS, AND METHODS RELATED THERETO” (EMORY UNIVERSITY, priority 2009, published 2012).
Entries after “also recorded” stand apart in the source; their conditions may differ.

Assays:
[1] = test system: primary hippocampal neurons; test: Constitutive AMPAR internalization assay; type: cell-based, mouse; details: WT neurons
cortical SNS = test: Metabolic labeling of cortical SNS with [35S]methionine (synaptic translation rates); type: cell-based, mouse; details: for translation rates (amino acid incorporation): antagonist 50 μM; for translation rates ([35S] incorporation in 5 min): antagonist 10 μM
Protocol: (§1) Cortical SNS were prepared as described previously (Muddashetty et al., 2007) and treated with the indicated antagonists or solvent for 5 min at 37° C., for some experiments followed by DHPG (100 μM) for 15 min at 37° C. as indicated, and with puromycin (2 mM) for 30 min at 37° C. Metabolic labeling was performed with 100 μCi Pro-Mix, L-(35S) in vitro cell labeling mix (GE Healthcare) for 5 min. Triplicate samples from time point 0 and 5 min were washed once in homogenization buffer, followed by lysis (100 mM Tris-HCl, pH 7.4, 150 mM NaCl, 0.5% deoxycholate, and 1% Triton X-100, supplemented with proteinase inhibitors) and TCA precipitation. 35S-incorporation levels were estimated by scintillation counting.

p110beta mRNA = p110beta mRNA in polysomal fractions of sucrose gradients, cortical SNS; type: cell-based, mouse
Protocol: Gradient preparation, centrifugation, fractionation, RNA purification, and qRT-PCRs were performed as described previously (Muddashetty et al., 2007).
as §1, with “[…],” for “for some experiments followed by DHPG (100 μM) for 15 min at 37° C. as indicated,”

PDK1 = details: hippocampal slices from Fmr1 KO mice; cited from earlier work
PI3K (p110beta) = test: In vitro PI3K assay with immunoprecipitated p110beta from treated cortical synaptoneurosomes (SNS); type: cell-based, mouse
Protocol: In vitro PI3K assays were performed as described previously (Ye et al., (2000) Cell 103:919-930) using p110beta antibody. In vitro extracellular signal-regulated kinase (ERK) activity assays were performed using the p44/42 MAP Kinase Assay kit from Cell Signaling Technology according to the manual. HEK293T cells were cultured in DMEM supplemented with 10% FBS. Fmr1-specific siRNA was transfected using LF2000 (Invitrogen) according to the manual. At 48 h after transfection, cells were scraped from the dish with PBS, divided into two equal parts for PI3K and ERK activity assays, respectively. […] Cortical synaptoneurosomes (SNS) were prepared as described previously (Muddashetty et al., (2007) J Neurosci 27:5338-5348.). SNS were split in two equal parts for PI3K and ERK activity assays. Cells and SNS were lysed in kinase assay buffers (for PI3K assay: 50 mM Tris-HCl, pH 7.4, 40 mM NaCl, 1 mM EDTA, 0.5% Triton X-100, 1.5 mM Na3VO4, 50 mM NaF, 10 mM sodium pyrophosphate, and 10 mM sodium β-glycerol phosphate, supplemented with proteinase inhibitors; for ERK activity assay: lysis buffer provided by Cell Signaling Technology). Lysates were cleared by centrifugation, and protein concentrations were determined by the Bradford method. For both kinase assays, the same amount of protein was used for wild-type (WT) and Fmr1 KO SNS or sifmr1 knockdown (KD) and sictr HEK293T cells, respectively. For measuring PI3K activity following various treatments, SNS were incubated for 10 min at 37° C. with either 100 μM (S)-3,5-dihydroxyphenylglycine (DHPG) or 10 μM 2-methyl-6-(phenylethynyl)-pyridine (MPEP) or for 1 h at 37° C. with tat-mGluR5-CT or tat-mGluR5-MUT peptides (5 μM) before lysis. For PI3K assays with cortical neurons, cells at 11d in vitro (DIV) were transfected with 10 μl of control adenovirus or adenovirus carrying short-hairpin PIKE-L (as described previously by Tang et al., (2008) Nat Cell Biol 10:698-706.) for 48 h. PI3K assays were performed with 300 μg of protein as described above. To confirm PIKE-L knockdown, 80 μg of protein was used for Western blot analyses using anti-PIKE-L antibody.

p110beta = p110beta protein levels by Western blot in cortical SNS; type: cell-based, mouse; details: DHPG 15 min, 50 μM
Protocol: SDS-PAGE and Western blots were performed as described previously (Muddashetty et al., 2007) and quantified using NIH ImageJ. Signal intensities of p110beta- and FMRP-specific bands were normalized to tubulin signal on the same blot. Signal intensities of phospho-proteins were normalized to total levels of the respective protein on the same blot. For this purpose, Western blots were stripped after detection with the phospho-specific antibodies using 100 mM β-mercaptoethanol and 2% SDS in 62.5 mM Tris-HCl, pH 6.8, at 50° C. for 30 min and, after extensive washing, detected with the respective antibody specific for the total protein.
as §1, with “[…],” for “for some experiments followed by DHPG (100 μM) for 15 min at 37° C. as indicated,”

rat hippocampal neurons = details: siRNA-mediated FMRP deficiency; cited from earlier work

SMILES: N#CC(=C(N)Sc1ccccc1N)C(C#N)=C(N)Sc1ccccc1N [U0126, 1,4-diamino-2,3-dicyano-1,4-bis(o-aminophenylmercapto)butadiene]
- constitutive endocytosis of AMPARs in distal dendrites (median) ([1]; U0126 20 μM for 1 h): 43.8
- DHPG-induced translational activation after antagonist pretreatment (cortical SNS; Fmr1 KO SNS, DHPG 100 μM, 15 min): did not rescue DHPG-stimulated translation; also recorded: but not by ERK1/2 inhibition
- DHPG-induced translational activation after antagonist pretreatment (cortical SNS; WT SNS, DHPG 15 min, 100 μM): abolished DHPG-induced translational increase; also recorded: abolish
- translation rates, genotype dependence of effect (cortical SNS; WT and Fmr1 KO SNS, U0126 20 μM): reduced protein synthesis levels independently of genotype to the same extent; also recorded: did not show a genotype-specific effect on translation rates

SMILES: COc1ccc(C[C@H](N)C(=O)N[C@H]2[C@@H](O)[C@H](n3cnc4c(N(C)C)ncnc43)O[C@@H]2CO)cc1 [puromycin]
- association of p110beta mRNA with synaptoneurosomal polysomes (p110beta mRNA; SNS, puromycin 2 mM, 30 min at 37° C.): sensitive to puromycin treatment

SMILES: O=c1cc(N2CCOCC2)oc2c(-c3ccccc3)cccc12 [LY294002, 2-(4-morpholinyl)-8-phenyl-1(4H)-benzopyran-4-one]
- constitutive endocytosis of AMPARs in distal dendrites (median) ([1]; LY294002 50 μM for 1 h): 35.3
- translation rates (amino acid incorporation) (cortical SNS; Fmr1 KO SNS): could specifically rescue the excessive synaptic translation; also recorded: significantly reduced amino acid incorporation rates

SMILES: Cc1cc(C(=O)O)ccc1[C@H](N)C(=O)O [LY367385]
- translation rates ([35S] incorporation in 5 min) (cortical SNS; Fmr1 KO SNS): reduced synaptic Fmr1 KO translation; also recorded: significantly decreased translation rates

SMILES: N[C@H](C(=O)O)c1cc(O)cc(O)c1 [DHPG, (S)-3,5-dihydroxyphenylglycine]
- phosphorylation of PDK1 (PDK1): does not induce the phosphorylation of PDK1
- PI3K activity (PI3K (p110beta); Fmr1 KO SNS, DHPG 100 μM, 10 min): failed to activate PI3K; also recorded: significant reduction of PI3K activity; also recorded: decreased PI3K activity
- PI3K activity (PI3K (p110beta); WT SNS, DHPG 100 μM, 10 min): twofold increase
- p110beta mRNA in puromycin-sensitive polysomal fractions (translation) (p110beta mRNA; Fmr1 KO SNS, DHPG 15 min, 50 μM): occluded
- p110beta mRNA in puromycin-sensitive polysomal fractions (p110beta mRNA; WT SNS, DHPG 15 min, 50 μM): induced a significant shift of p110beta mRNA into puromycin-sensitive fractions; also recorded: leads to a shift of p110beta mRNA into puromycin-sensitive fractions
- DHPG-induced translational activation (cortical SNS; Fmr1 KO SNS, no antagonist): occluded
- p110beta protein expression (p110beta; Fmr1 KO SNS): occluded; also recorded: does not increase protein expression
- p110beta protein levels (p110beta; WT SNS): led to increased p110beta protein levels; also recorded: increases p110beta protein levels

SMILES: O=c1cc(N2CCNCC2)oc2c(-c3ccccc3)cccc12 [LY303511, 2-(1-piperazinyl)-8-phenyl-4H-1-benzopyran-4-one]
- translation rates (cortical SNS; SNS, inactive analog of LY294002): did not show any effect; also recorded: did not alter translation rates

SMILES: Cc1cccc(C#Cc2ccccc2)n1 [MPEP, 2-methyl-6-(phenylethynyl)-pyridine]
- levels of internalized AMPARs (rat hippocampal neurons): rescued increased levels of internalized AMPARs
- PI3K activity (PI3K (p110beta); Fmr1 KO SNS, MPEP 10 μM, 10 min at 37° C.): significantly reduced PI3K function; also recorded: significantly reduces PI3K activity
- PI3K activity (PI3K (p110beta); WT SNS, MPEP 10 μM, 10 min at 37° C.): no significant effect
- translation rates ([35S] incorporation in 5 min) (cortical SNS; Fmr1 KO SNS): reduced synaptic Fmr1 KO translation; also recorded: significantly decreased translation rates

SMILES: N[C@@H](CCCP(=O)(O)O)C(=O)O [APV]
- translation rates (amino acid incorporation) (cortical SNS; Fmr1 KO SNS): failed to reduce augmented translation in KO
- translation, genotype dependence of effect (cortical SNS; WT and Fmr1 KO SNS, APV 50 μM): affected translation similarly across genotypes
